Data from patent publication US9650339B2, “Inhibitors of histone demethylases” (Gilead Sciences, Inc., priority 2013, dated 2017).

What was measured:
Type in all cases: cell-based
[1] = target: T1, KDM4C (Homo sapiens, UniProt Q9H3R0); assay: Histone lysine demethylase immunofluorescence assay, U2OS cells transfected with KDM4C; conditions: U2OS cells transfected with pCMVHA KDM4C; mark detected H3K9me3; 20 hours
T1 construct: Full length; host or cells: U2OS
T1 sequence (Q9H3R0 1-1056): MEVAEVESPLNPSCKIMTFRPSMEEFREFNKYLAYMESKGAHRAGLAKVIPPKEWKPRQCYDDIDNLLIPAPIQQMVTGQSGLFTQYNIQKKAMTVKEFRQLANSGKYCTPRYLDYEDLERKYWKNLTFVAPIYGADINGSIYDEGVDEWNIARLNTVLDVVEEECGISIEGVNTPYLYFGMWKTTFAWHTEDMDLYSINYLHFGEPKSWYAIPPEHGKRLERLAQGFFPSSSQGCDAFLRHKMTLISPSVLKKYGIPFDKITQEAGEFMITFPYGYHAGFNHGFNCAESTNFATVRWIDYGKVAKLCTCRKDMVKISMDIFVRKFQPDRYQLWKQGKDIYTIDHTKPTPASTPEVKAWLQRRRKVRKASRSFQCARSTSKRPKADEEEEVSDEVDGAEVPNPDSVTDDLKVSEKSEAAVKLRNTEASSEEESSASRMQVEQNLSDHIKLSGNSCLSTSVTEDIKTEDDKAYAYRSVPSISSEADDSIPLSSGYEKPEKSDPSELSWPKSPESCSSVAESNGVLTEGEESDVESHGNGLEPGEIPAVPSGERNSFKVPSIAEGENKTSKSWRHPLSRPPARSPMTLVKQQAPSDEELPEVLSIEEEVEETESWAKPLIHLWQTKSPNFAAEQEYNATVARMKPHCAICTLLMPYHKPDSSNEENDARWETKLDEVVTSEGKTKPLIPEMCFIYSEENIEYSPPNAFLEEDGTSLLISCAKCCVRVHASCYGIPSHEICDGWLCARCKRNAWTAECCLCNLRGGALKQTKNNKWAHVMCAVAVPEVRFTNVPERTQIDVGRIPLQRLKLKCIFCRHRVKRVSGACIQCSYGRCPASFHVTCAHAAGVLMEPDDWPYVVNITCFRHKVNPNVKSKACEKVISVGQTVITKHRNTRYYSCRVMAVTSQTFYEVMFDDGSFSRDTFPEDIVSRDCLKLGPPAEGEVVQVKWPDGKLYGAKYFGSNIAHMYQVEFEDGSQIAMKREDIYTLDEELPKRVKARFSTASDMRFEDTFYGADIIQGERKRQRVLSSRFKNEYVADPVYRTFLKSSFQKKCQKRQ
Experimental: (§1) U2OS cells were seeded 24 hours before transfection. Transfection was performed with Fugene HD transfection reagent as recommended by the manufacturer. 6 hours after transfection, the cells were harvested and seeded into multi well plates into media containing compound. The media used was DMEM containing 10% FBS and pen/strep. 20 hours after incubation of cells with compounds, the cells were washed in PBS, harvested by fixation with formaldehyde 4% aqueous solution, and washed in PBS. Subsequently, the cells were permeabilized in PBS with 0.2% Triton X-100 for. Blocking was performed in PBS with 0.2% Triton X-100 and 5% FBS. The cells were incubated with primary antibodies in blocking solution over night at 4° C. The primary antibodies used in the assays were HA.11 (Covance, MMS-101P) and the antibody detecting the mark specified in the table below. After incubation with primary antibodies, the cells were washed with PBS, incubated with secondary antibodies (Alexa fluor 594 goat anti rabbit IgG, Invitrogen, A11012; Alexa flour 488 donkey anti mouse IgG, Invitrogen, A21202) and Hoechst, (Sigma, 33342) in blocking solution, and washed again with PBS. Finally, PBS was added and high throughput imaging and analysis were performed by an IN Cell Analyzer 1000 (GE Healthcare). The robot software analyzed individual cells and divided these into HA+ (transfected cells) and HA− (non-transfected cells). The IC50 values were based on an average measure of the staining of the mark specified in the table below in the transfected cells.

[2] = target: T2, KDM2A (Homo sapiens, UniProt Q9Y2K7); assay: Histone lysine demethylase immunofluorescence assay, U2OS cells transfected with KDM2A; conditions: U2OS cells transfected with pCMVHA KDM2A; mark detected H3K36me2; 20 hours
T2 construct: Full length; host or cells: U2OS
T2 sequence (Q9Y2K7 1-1162): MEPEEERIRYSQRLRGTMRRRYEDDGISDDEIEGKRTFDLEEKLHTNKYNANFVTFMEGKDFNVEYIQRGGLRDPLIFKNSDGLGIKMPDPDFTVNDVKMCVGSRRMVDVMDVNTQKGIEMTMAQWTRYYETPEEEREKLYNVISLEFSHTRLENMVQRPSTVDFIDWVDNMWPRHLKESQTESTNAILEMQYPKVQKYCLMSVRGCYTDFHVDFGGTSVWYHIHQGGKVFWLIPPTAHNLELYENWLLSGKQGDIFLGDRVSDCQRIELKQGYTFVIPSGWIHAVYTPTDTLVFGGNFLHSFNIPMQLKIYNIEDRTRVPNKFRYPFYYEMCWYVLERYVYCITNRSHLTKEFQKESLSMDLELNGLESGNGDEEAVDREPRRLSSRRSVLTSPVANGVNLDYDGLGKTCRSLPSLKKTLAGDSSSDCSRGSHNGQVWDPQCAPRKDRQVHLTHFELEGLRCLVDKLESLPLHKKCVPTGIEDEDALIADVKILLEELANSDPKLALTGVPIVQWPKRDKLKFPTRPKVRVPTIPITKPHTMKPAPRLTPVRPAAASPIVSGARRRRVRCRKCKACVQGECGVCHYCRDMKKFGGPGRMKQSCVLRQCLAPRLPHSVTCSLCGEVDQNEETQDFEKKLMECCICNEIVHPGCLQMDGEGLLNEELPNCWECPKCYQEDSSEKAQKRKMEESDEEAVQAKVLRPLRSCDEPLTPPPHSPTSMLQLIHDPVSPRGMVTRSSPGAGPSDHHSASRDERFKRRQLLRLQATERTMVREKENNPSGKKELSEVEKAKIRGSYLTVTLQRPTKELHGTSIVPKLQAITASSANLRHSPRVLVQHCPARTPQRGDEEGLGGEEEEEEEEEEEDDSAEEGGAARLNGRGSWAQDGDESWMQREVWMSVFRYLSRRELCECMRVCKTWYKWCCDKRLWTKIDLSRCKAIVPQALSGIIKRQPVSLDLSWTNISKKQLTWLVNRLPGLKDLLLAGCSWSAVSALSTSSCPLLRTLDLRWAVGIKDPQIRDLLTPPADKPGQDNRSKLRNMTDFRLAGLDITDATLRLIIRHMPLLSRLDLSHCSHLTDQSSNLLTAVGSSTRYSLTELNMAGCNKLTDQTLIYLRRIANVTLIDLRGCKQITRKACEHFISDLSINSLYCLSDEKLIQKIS
Experimental: as §1

[3] = target: T3, KDM5B (Homo sapiens, UniProt Q9UGL1); assay: Histone lysine demethylase immunofluorescence assay, U2OS cells transfected with KDM5B; conditions: U2OS cells transfected with pCMVHA KDM5B; mark detected H3K4me2; 20 hours
T3 construct: (a.a. 1-752); host or cells: U2OS
T3 sequence (Q9UGL1 1-752): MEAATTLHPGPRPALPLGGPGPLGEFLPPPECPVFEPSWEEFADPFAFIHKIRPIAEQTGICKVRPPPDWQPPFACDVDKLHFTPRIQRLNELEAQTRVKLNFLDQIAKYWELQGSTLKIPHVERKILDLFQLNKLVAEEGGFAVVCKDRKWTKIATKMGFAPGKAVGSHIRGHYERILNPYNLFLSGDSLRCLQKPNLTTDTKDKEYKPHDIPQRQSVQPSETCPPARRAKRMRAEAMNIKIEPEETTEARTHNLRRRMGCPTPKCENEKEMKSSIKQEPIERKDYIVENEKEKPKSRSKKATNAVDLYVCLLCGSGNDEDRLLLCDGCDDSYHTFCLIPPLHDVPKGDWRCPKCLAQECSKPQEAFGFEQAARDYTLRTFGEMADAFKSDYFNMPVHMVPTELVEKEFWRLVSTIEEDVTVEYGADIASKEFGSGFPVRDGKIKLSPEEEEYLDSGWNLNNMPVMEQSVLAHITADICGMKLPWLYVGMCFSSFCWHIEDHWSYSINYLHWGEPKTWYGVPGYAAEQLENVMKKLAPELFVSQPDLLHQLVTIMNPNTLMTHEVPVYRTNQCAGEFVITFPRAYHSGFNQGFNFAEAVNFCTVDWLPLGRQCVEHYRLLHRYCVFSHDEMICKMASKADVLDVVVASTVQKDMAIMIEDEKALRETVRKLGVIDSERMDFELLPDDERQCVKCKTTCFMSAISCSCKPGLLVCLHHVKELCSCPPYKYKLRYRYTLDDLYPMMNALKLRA
Experimental: as §1

Measured: IC50

CN(CCc1ccccc1)C(=O)CNCc1cc(/C=N/CCO)ccn1 [Compound 96, 2-[{4-[([(2-hydroxyethyl)imino]-methyl]pyridin-2-yl}methyl)amino]-N-methyl-N-(2-phenylethyl)acetamide]
> 2500 nM: all assays above
